Results reported in patent US12331040B2 (Karyopharm Therapeutics Inc., priority 2013, dated 2025).
pIC50: −log10 of the molar value. Like-named read-outs stand apart in the source and are kept apart here.

Legend:
Test in all cases: MTT cell proliferation assay
Format in all cases: cell-based
3T3 cells = conditions: Mus musculus, NIH3T3, approximately 64-72 hours incubation
Procedure, shortened: (§1)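 Cytotoxicity was measured by MTT: OD490 of the solubilized formazan after roughly 4 h with MTT reagent, reported as mean percent inhibition relative to the negative control. Test compounds covered eight concentrations between 1 nM and 30 μM, added to 5,000–10,000 cells per well that had attached overnight.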

MS751 cells = conditions: Homo sapiens, MS751, MS751 cells, approximately 64-72 hours incubation
Procedure, shortened: as §1

Z138 cells = conditions: Homo sapiens, Z-138, Z138 cells, approximately 64-72 hours incubation
Procedure, shortened: as §1

[1] = read-out: MTT Assay IC50 MS-751
[2] = read-out: MTT Assay IC50, MS-751
[3] = read-out: MTT Assay IC50, Z-138

SMILES	pIC50 (3T3 cells; read-out: MTT Assay IC50 3T3)	pIC50 (MS751 cells; [1])	pIC50 (Z138 cells; read-out: MTT Assay IC50 Z-138)	pIC50 (3T3 cells; read-out: MTT Assay IC50, 3T3)	pIC50 (MS751 cells; [2])	pIC50 (Z138 cells; [3])
Nc1ccc(/C=C/C(=O)NCc2cc3cc(-c4ccc(C(=O)NC5CCC(F)(F)CC5)cn4)cc(C(F)(F)F)c3o2)cn1 [Compound 629, (E)-6-(2-((3-(6-aminopyridin-3-yl)acrylamido)methyl)-7-(trifluoromethyl)benzofuran-5-yl)-N-(4,4-difluorocyclohexyl)nicotinamide]	< 5.00	5.30 to 7.00	5.30 to 7.00	–	–	–
Nc1ccc(/C=C/C(=O)NCc2cc3cc(-c4ccc(C(=S)N5CCC(F)(F)CC5)cn4)cc(-c4ccncc4)c3o2)cn1 [Compound 707, (E)-3-(6-aminopyridin-3-yl)-N-((5-(5-(4,4-difluoropiperidine-1-carbonothioyl)pyridin-2-yl)-7-(pyridin-4-yl)benzofuran-2-yl)methyl)acrylamide]	–	–	–	5.30 to 7.00	> 7.00	> 7.00
Nc1ccc(/C=C/C(=O)NCc2cc3cc(-c4ccc(C(=O)N5CCC(F)(F)CC5)cn4)cc(-c4cc5ccccc5o4)c3o2)cn1 [Compound 668, (E)-3-(6-aminopyridin-3-yl)-N-((5′-(5-(4,4-difluoropiperidine-1-carbonyl)pyridin-2-yl)-2,7′-bibenzofuran-2′-yl)methyl)acrylamide]	–	–	–	5.30 to 7.00	> 7.00	> 7.00
Nc1ccc(/C=C/C(=O)NCc2cc3cc(-c4ccc(F)c(C(=O)N5CCOCC5)c4)cc(C(F)(F)F)c3o2)cn1 [Compound 563, (E)-3-(6-aminopyridin-3-yl)-N-((5-(4-fluoro-3-(morpholine-4-carbonyl)phenyl)-7-(trifluoromethyl)benzofuran-2-yl)methyl)acrylamide]	< 5.00	5.30 to 7.00	> 7.00	–	–	–
Nc1ccc(/C=C/C(=O)NCc2cc3cc(-c4ccc(S(=O)(=O)N5CC(F)C5)cc4)cc(Cl)c3o2)cn1 [Compound 533, (E)-3-(6-aminopyridin-3-yl)-N-((7-chloro-5-(4-(3-fluoroazetidin-1-ylsulfonyl)phenyl)benzofuran-2-yl)methyl)acrylamide]	< 5.00	5.30 to 7.00	5.30 to 7.00	–	–	–
CC1(F)CCN(C(=O)c2ccc(-c3cc(C(F)(F)F)c4oc(CNC(=O)/C=C/c5ccc(N)nc5)cc4c3)cc2)CC1 [Compound 604, (E)-3-(6-aminopyridin-3-yl)-N-((5-(4-(4-fluoro-4-methylpiperidine-1-carbonyl)phenyl)-7-(trifluoromethyl)benzofuran-2-yl)methyl)acrylamide]	< 5.00	5.30 to 7.00	5.30 to 7.00	–	–	–
O=C(/C=C/c1cccnc1)NCc1cc2cc(-c3ccc(C(=O)N4CCC(F)(F)CC4)cc3)cc(-c3cccnc3)c2o1 [Compound 725, (E)-N-((5-(4-(4,4-difluoropiperidine-1-carbonyl)phenyl)-7-(pyridin-3-yl)benzofuran-2-yl)methyl)-3-(pyridin-3-yl)acrylamide]	–	–	–	> 7.00	> 7.00	> 7.00
O=C(/C=C/c1cccnc1)NCc1cc2cc(-c3ccc(C(=O)N4CCC(F)(F)CC4)cn3)cc(-c3cccnc3)c2o1 [Compound 673, (E)-N-((5-(5-(4,4-difluoropiperidine-1-carbonyl)pyridin-2-yl)-7-(pyridin-3-yl)benzofuran-2-yl)methyl)-3-(pyridin-3-yl)acrylamide]	–	–	–	> 7.00	> 7.00	> 7.00
Nc1ccc(/C=C/C(=O)NCc2cc3cc(-c4ccc(C(=O)N5CCC(F)(F)CC5)cc4)cc(-c4c(F)cc(F)cc4F)c3o2)cn1 [Compound 697, (E)-3-(6-aminopyridin-3-yl)-N-((5-(4-(4,4-difluoropiperidine-1-carbonyl)phenyl)-7-(2,4,6-trifluorophenyl)benzofuran-2-yl)methyl)acrylamide]	–	–	–	5.30 to 7.00	> 7.00	> 7.00
CC1(C)CN(C(=O)c2ccc(-c3cc(C(F)(F)F)c4oc(CNC(=O)/C=C/c5ccc(N)nc5)cc4c3)cc2)C1 [Compound 526, (E)-3-(6-aminopyridin-3-yl)-N-((5-(4-(3,3-dimethylazetidine-1-carbonyl)phenyl)-7-(trifluoromethyl)benzofuran-2-yl)methyl)acrylamide]	< 5.00	5.30 to 7.00	5.30 to 7.00	–	–	–
Nc1ccc(/C=C/C(=O)NCc2cc3cc(-c4ccc(CN5CCC(F)(F)CC5)cn4)cc(C(F)(F)F)c3o2)cn1 [Compound 675, (E)-3-(6-aminopyridin-3-yl)-N-((5-(5-((4,4-difluoropiperidin-1-yl)methyl)pyridin-2-yl)-7-(trifluoromethyl)benzofuran-2-yl)methyl)acrylamide]	–	–	–	< 5.00	< 5.00	< 5.00
Nc1ccc(/C=C/C(=O)NCc2cc3cc(-c4ccc(Oc5ccc(F)cc5)cn4)cc(-c4ccc(F)cc4)c3o2)cn1 [Compound 745, (E)-3-(6-aminopyridin-3-yl)-N-((5-(5-(4-fluorophenoxy)pyridin-2-yl)-7-(4-fluorophenyl)benzofuran-2-yl)methyl)acrylamide]	–	–	–	< 5.00	5.30 to 7.00	5.30 to 7.00
Nc1ccc(/C=C/C(=O)NCc2cc3cc(-c4ccc(C(=O)N5CCC(O)(C(F)(F)F)C5)cn4)cc(C(F)(F)F)c3o2)cn1 (stereo not drawn) [Compound 613, (E)-3-(6-aminopyridin-3-yl)-N-((5-(5-(3-hydroxy-3-(trifluoromethyl)pyrrolidine-1-carbonyl)pyridin-2-yl)-7-(trifluoromethyl)benzofuran-2-yl)methyl)acrylamide]	< 5.00	5.30 to 7.00	> 7.00	–	–	–
Nc1ccc(/C=C/C(=O)NCc2cc3cc(-c4ccc(C(=O)N5CCOCC5)cc4)cc(Cl)c3o2)cc1 [Compound 550, (E)-3-(4-Aminophenyl)-N-((7-chloro-5-(4-(morpholine-4-carbonyl)phenyl)benzofuran-2-yl)methyl)acrylamide]	< 5.00	< 5.00	< 5.00	–	–	–
Nc1ccc(/C=C/C(=O)NCc2cc3c(-c4ccc(C(=O)N5CCC(F)(F)CC5)cc4)cc(Cl)cc3o2)cn1 [Compound 713, (E)-3-(6-aminopyridin-3-yl)-N-((6-chloro-4-(4-(4,4-difluoropiperidine-1-carbonyl)phenyl)benzofuran-2-yl)methyl)acrylamide]	–	–	–	5.00 to 5.30	5.30 to 7.00	5.30 to 7.00
CN1CCN(C(=O)c2cnc(-c3cc(Cl)c4oc(CNC(=O)/C=C/c5ccc(N)nc5)cc4c3)nc2)CC1 [Compound 586]	< 5.00	5.30 to 7.00	5.30 to 7.00	–	–	–
Nc1ccc(/C=C/C(=O)NCc2cc3cc(-c4ccc(C(=O)N5CCC(F)(F)CC5)cn4)cc(-c4ccc(F)cc4F)c3o2)cn1 [Compound 710, (E)-3-(6-aminopyridin-3-yl)-N-((7-(2,4-difluorophenyl)-5-(5-(4,4-difluoropiperidine-1-carbonyl)pyridin-2-yl)benzofuran-2-yl)methyl)acrylamide]	–	–	–	5.30 to 7.00	> 7.00	> 7.00
Nc1ccc(/C=C/C(=O)NCc2cc3c(-c4ccc(C(=O)N5CCC(F)(F)CC5)cn4)cc(C(F)(F)F)cc3o2)cn1 [Compound 761, (E)-3-(6-aminopyridin-3-yl)-N-((4-(5-(4,4-difluoropiperidine-1-carbonyl)pyridin-2-yl)-6-(trifluoromethyl)benzofuran-2-yl)methyl)acrylamide]	–	–	–	< 5.00	< 5.00	< 5.00
Nc1ccc(/C=C/C(=O)NCc2cc3cc(-c4ccc(C(=O)N5CCC(O)(C(F)(F)F)CC5)cn4)cc(C(F)(F)F)c3o2)cn1 [Compound 616, (E)-3-(6-aminopyridin-3-yl)-N-((5-(5-(4-hydroxy-4-(trifluoromethyl)piperidine-1-carbonyl)pyridin-2-yl)-7-(trifluoromethyl)benzofuran-2-yl)methyl)acrylamide]	< 5.00	> 7.00	> 7.00	–	–	–
CS(=O)(=O)c1ccc(-c2cc(-c3ccc(F)cc3)c3oc(CNC(=O)/C=C/c4ccc(N)nc4)cc3c2)cc1 [Compound 693, (E)-3-(6-aminopyridin-3-yl)-N-((7-(4-fluorophenyl)-5-(4-(methylsulfonyl)phenyl)benzofuran-2-yl)methyl)acrylamide]	–	–	–	5.30 to 7.00	> 7.00	> 7.00
Nc1ccc(/C=C/C(=O)NCc2cc3cc(-c4ccc(C(=O)N5CCOCC5)cc4)cc(C(F)F)c3o2)cn1 [Compound 557, (E)-3-(6-aminopyridin-3-yl)-N-((7-(difluoromethyl)-5-(4-(morpholine-4-carbonyl)phenyl)benzofuran-2-yl)methyl)acrylamide]	< 5.00	5.30 to 7.00	5.30 to 7.00	–	–	–
CC1(F)CCN(C(=O)c2ccc(-c3cc(C(F)(F)F)c4oc(CNC(=O)/C=C/c5ccc(N)nc5)cc4c3)cc2)C1 (stereo not drawn) [Compound 608, (E)-3-(6-aminopyridin-3-yl)-N-((5-(4-(3-fluoro-3-methylpyrrolidine-1-carbonyl)phenyl)-7-(trifluoromethyl)benzofuran-2-yl)methyl)acrylamide]	< 5.00	5.30 to 7.00	5.30 to 7.00	–	–	–
NC(=O)c1ccc(-c2cc(Cl)c3oc(CNC(=O)/C=C/c4ccc(N)nc4)cc3c2)cc1 [Compound 506, (E)-4-(2-((3-(6-aminopyridin-3-yl)acrylamido)methyl)-7-chlorobenzofuran-5-yl)benzamide]	< 5.00	5.00 to 5.30	5.30 to 7.00	–	–	–
Nc1ccc(/C=C/C(=O)NCc2cc3cccc(-c4ccc(C(=O)N5CCOCC5)cc4)c3o2)cn1 [Compound 559, (E)-3-(6-aminopyridin-3-yl)-N-((7-(4-(morpholine-4-carbonyl)phenyl)benzofuran-2-yl)methyl)acrylamide]	5.30 to 7.00	> 7.00	> 7.00	–	–	–
